Results taken from patent publication US20240216412A1, “OXIDIZED NICOTINAMIDE ADENINE DINUCLEOTIDE (NAD+) PRECURSOR TREATMENT FOR HEART FAILURE ALLEVIATION INDEPENDENT OF MITOCHONDRIAL PROTEIN DEACETYLATION” (University of Washington, priority 2022, published 2024).

How the values were obtained:
Assay type in all cases: in vivo, mouse
[1] = system: Mrpp2; assay: Mrpp2 dehydrogenase activity in heart homogenates; settings: NR treated failing (TAC) hearts, matching sham operated controls
Method: Enzyme Activities. Citrate synthase (CS), Complex I (CI) and Cytochrome C Oxidase (CIV), and Mrpp2 dehydrogenase activities were determined in heart tissue homogenates at 30° C. using a protocol adapted from previously published methods (Spinazzi et al., 2012). Briefly, for CS activity frozen cardiac tissue (25 mg) was homogenized at 4° C. in CelLytic™ MT Cell Lysis Reagent (C3228) and then incubated on ice for 30 minutes. The samples were then centrifuged at 10,000×g for 10 minutes at 4° C. and protein concentration determined. CS activity was analyzed in 100 mM Tris buffer containing 0.1% Triton X-100, pH 8.0 as previously described (Spinazzi et al., 2012). […] CIV activity was analyzed in 100 mM potassium phosphate buffer as previously described (Spinazzi et al., 2012). […] Cl activity was analyzed in 100 mM potassium phosphate buffer as previously described (Spinazzi et al., 2012). In parallel, a separate reactions containing the same quantity of reagents and sample but with the addition of 10 μl of 1 mM rotenone solution. The reactions were started by adding 6 μl of ubiquinone (10 mM), mix and follow the decrease of absorbance at 340 nm for 2 min. The dehydrogenase activity of Mrpp2 was measured as described (Falk et al., 2016) in the reverse direction for reduction of acetoacetyl-CoA (30 mM) to L-3-hydroxyacyl-CoA. The reaction was monitored as the decrease of absorbance at 340 nm.

[2] = system: retinol oxidation by SDRs; assay: Retinoid measurements in heart tissue (LC-MS/MS); settings: TAC hearts, WT and Sirt3Ko mice
Excerpt: Retinoid measurements. Analysis of all-trans-retinyl ester palmitate (RP), all-trans,-retinol (ROL) was done in collaboration with Dr. Nina Isoherranen laboratory using previously established methods (Czuba et al., 2020). RP, ROL were purchased from Toronto Research Chemicals (North York, ON), and retinyl ester palmitate-d4 (RP-d4) and all-trans-retinol-d6 (ROLd6) were purchased from Cambridge Isotopes (Andover, MA). Blank human serum (DC MASS SPECT GOLD MSG4000) for standard curve and quality control matrix was purchased from Golden West Diagnostics (Temecula, CA). Solvents for liquid chromatography tandem mass spectrometry (LC-MS/MS) were Optima LC-MS grade and purchased from Fisher Scientific (Pittsburgh, PA). […]
RP and ROL concentrations were determined on an AB Sciex 5500 QTRAP mass spectrometer (AB Sciex, Foster City), coupled with an Agilent 1290 UHPLC (Agilent, Santa Clara, CA) using a Ascentis Express RP-amide column (2.1×150 mm, […]) and guard column (2.1×5 mm, 2.7 μm). […]
RP and ROL were detected in positive ion mode atmospheric pressure chemical ionization (APCI) mode using selected reaction monitoring (SRM). […] The CE was 25 V, DP was 60 V, entrance potential was 10 V, and collision exit potential was 10 V. Peaks were integrated and quantified using MultiQuant 2.1.1 (AB Sciex, Foster City, CA). […]

[3] = system: fatty acid oxidation (acylcarnitines) in heart; assay: Cardiac acyl-carnitine profiling (LC/MS)
Method: Cardiac acyl-carnitines. Metabolites were extracted from frozen heart tissue (10 mg) by precipitating in 80:20% methanol:water following the addition of 1 ug/ml internal standard (C16 palmitoylcarnitine, d3, Cambridge Isotope Laboratories, Inc.). After centrifugation, the supernatant was transferred to LC/MS auto sampler vials (Thermo Fisher). The protein pellet was redissolved in 0.1 M NaOH and protein concentration measured for normalization.
Acyl-carnitines were analyzed using a Triple TOF—5600 (AB Sciex) series mass spectrometer in line with a Water Acquity I-class UPLC. Chromatographic separation was achieved using an Acquity UPLC BEH HILIC, 1.7 micron, 2.1×100 mm column (Waters) with a flow rate of 0.5 ml/min. Total run time was 22 minutes. The mobile phase was composed of two solvents: A=5 mM Ammonium Acetate in 95:5 acetonitrile:water and B=5 mM Ammonium Acetate in 50:50 acetonitrile:water using the following gradient.
Samples were analyzed in positive electrospray ionization (ESI+) with a mass range from 50-1000 Da. […] Additional acyl-carnitines were identified by their m/z value as compared to theoretical values determined by the molecular formula ±0.003 D. Peak areas intensities were normalized to protein concentration.

With NC(=O)c1ccc[n+]([C@@H]2O[C@H](CO)[C@@H](O)[C@H]2O)c1 [NR, Nicotinamide riboside chloride] the “Increase in Mrpp2 dehydrogenase activity” value [1] was roughly 2 fold, the “Retinol and retinylpalmitate accumulation (bottleneck in SDR reactions)” value [2] was “removed the “bottleneck”” and the “Tissue content of lipid derived acylcarnitines and hydroxy-acylcarnitines” value ([3]; NR treated TAC hearts, to level similar to WT-Sham) was “increased”. For the same compound, the “C16 (palmitoylcarnitine) levels” value ([3]; WT and Sirt3ko NR treated TAC hearts vs vehicle) was “increased”.
